Conditions: fasted subjects, 100 mg CBD equivalent by mouth, 1 hour post ingestion
Protocol: Fasted subjects were administered either a single cannabidiol capsule (100 mg cannabidiol) or two cannabidiol/cyclodextrin capsules (total 100 mg cannabidiol equivalent) by mouth. The capsules were taken with a standard glass of water. Capillary blood was drawn one hour after ingestion and the quantity of cannabidiol and cannabidiol metabolites in blood analysed by a certified laboratory.

## C=C(C)[C@@H]1CCC(C)=C[C@H]1c1c(O)cc(CCCCC)cc1O [Plain CBD, cannabidiol]
  Concentration of CBD in capillary blood: 11.52 ng/mL
  Concentration of CBD-COOH in capillary blood: 13.14 ng/mL
  Concentration of CBD-OH in capillary blood: 1.85 ng/mL
  Concentration, Total (CBD and metabolites) in capillary blood: 26.77 ng/mL
